# Measurements: patent US6630125B2, “18F-labeled choline analogs” (priority 2000, dated 2003)
# “Also recorded” adds a separate entry of the source. Where two headings read alike, the source gives them in different places.
# Key:
# [1] = test system: PC-3 prostate cancer cells; experiment: Analysis of radiolabeled metabolites in PC-3 prostate cancer cells; type: cell-based, human
# Protocol: The primary hydrophilic metabolites of choline in mammals is phosphocholine and betaine. […] The HPLC system used a microprocessor-controlled solvent delivery system and a silica column (Adsorbosphere Silica (10μ), 250×4.6 mm, Alltech, Deerfield, Ill.). The column was kept at room temperature and the flow rate was maintained at 1.5 ml/min. […] Fractions of effluent were collected every 0.5 min and first counted for ^18F-radioactivity in a well-counter for experiments involving [^18F]FCH, then transferred to scintillation vials for counting for ^14C-radioactivity. The column was equilibrated for 6 min with Buffer A before injection. After the injection (<100 μl), Buffer A was delivered for 6 min which eluted betaine (3 min) from the column. […] Re-equilibration of the column with 100% A for 6 min preceded the next injection.
# Methanol (1 ml) was added to each well and the cells were lysed by maintaining the temperature at 37° C. for 30 min. The methanol phase was transferred to a glass test tube. Each well was rinsed with an additional 0.5 ml methanol which was added to the original fraction. To each tube, 3 ml chloroform and 1 ml 0.25 M sodium phosphate (pH=4.5) were added to separate lipids from water-soluble molecules. After vigorous mixing of the samples for 1 min, the two phases were separated, and a 0.5 ml aliquot of each phase was counted for ^18F and ^14C radioactivity. The aqueous phase was further analyzed for water-soluble metabolites using the gradient-HPLC method previously described.
# Cells incubated in 6-well plates for 2 hr with radiotracers were thoroughly washed to remove all extracellular radioactivity. The cells were lysed in methanol and the methanol solution added to chloroform to solubilize all lipophilic metabolites.
# [2] = Human dosimetry estimation (MIRDOSE 3.1 from mouse biodistribution)
# Source text: Urinary radioactivity was assumed to be retained within the urinary bladder. […] Since urinary excretion patterns in rodents are commonly more rapid than in the human, the assumption of no urinary clearance of radioactivity was precautionary. Bone uptake was distributed at the bone surfaces. The 70 kg adult male ORNL phantom was used since this would best reflect the primary study population (prostate carcinoma).
# [3] = test system: patients with prostate cancer; experiment: PET imaging in patients with prostate cancer; settings: human, in vivo
# Protocol: The distribution of FCH in PET imaging studies was evaluated in 14 patients with prostate cancer, 14 patients with breast cancer, and 5 patients with brain tumors. Imaging was performed using the Advance PET scanner (GE Medical Systems, Milwaukee, Wis.). […] In prostate cancer patients, a transmission scan of the pelvic region was obtained before administration of radiotracer. FCH (2.5-5 mCi) was administered intravenously, and dynamic imaging of the pelvis region was commenced for 20-30 min. During image reconstruction, the emission data in the pelvic region were corrected for photon attenuation using the transmission scan. Immediately following the dynamic scan, a whole-body emission scan was performed without transmission scanning for attenuation correction. The images were reconstructed using an Ordered Subset Expectation Maximum (OS-EM) algorithm. Regions-of-interest were drawn manually on the attenuation corrected images for evaluation of FCH kinetics in tissues. Standardized uptake values of FCH uptake in tissues were calculated using the attenuation-corrected images according to the equation: [formula]
# Patient 2: Transmission and FCH emission scans of a person with hormone naive clinical stage T2 prostate cancer were commenced over the lower pelvis.
# The same patient was scanned with FDG within the same week (FIG. 8).
# Patient 4: A person with a history of clinical stage T3b prostate cancer treated by radical retropubic prostatectomy was diagnosed with metastatic disease by bone scan. FCH-PET imaging was performed before and after initiating androgen deprivation therapy. In the first study, whole-body emission scanning was started 5 min after injection, beginning at the pelvic region in order to image the pelvis and prostatic bed before arrival of urinary radioactivity. […] The patient was rescanned 2 weeks after initiating androgen deprivation therapy.
# Patient 5: A person was initially diagnosed five years prior with locally advanced clinical stage T3NOMO prostate cancer and underwent radical prostatectomy followed by external beam radiation to the prostate bed. […] The patient was then treated with Zolex and Casodex.
# [4] = test system: mice with PC-3 xenografts
# Protocol: Body weight and tumor volume were measured weekly and tumor volume (mm3) was calculated using the formula S2×L/2, where S and L represent the small and large diameters of the tumor, respectively.
# A prescribed duration of time was allowed before procurement of heart, liver, lung, blood, kidney, bone (femur), brain (whole), prostate gland, tumor, bladder, and skeletal muscle. The tissues were weighed, and counted for ^18F in a gamma counter, then dissolved in Solvable (Dupont, Boston Mass.) and counted for ^14C in a liquid scintillation counter. For the bladder, the percentage of the injected dose in the urine was determined. For all other tissues, radiotracer uptake was calculated as: […]
# [5] = calculated from mice biodistribution data
compound,measurement,setting,value
"C[N+](C)(CF)CCO.[Cl-] [FCH, dimethylfluoromethyl-2-hydroxyethylammonium chloride]","^18F-labeled species: hydrophilic metabolites, FCH",[1]; +HC-3 (5 mM hemicholinium-3),0.04 ± 0.01 percentage of administered dose
same,"^18F-labeled species: hydrophilic metabolites, P-FCH",[1]; +HC-3 (5 mM hemicholinium-3),0.12 ± 0.03 percentage of administered dose
same,^18F-labeled species: lipophilic metabolites,[1]; +HC-3 (5 mM hemicholinium-3),0.01 ± 0.01 percentage of administered dose
same,"^18F-labeled species: hydrophilic metabolites, FCH","[1]; Control, 2 hr, 37° C.",0.29 ± 0.05 percentage of administered dose
same,"^18F-labeled species: hydrophilic metabolites, P-FCH","[1]; Control, 2 hr, 37° C.",7.1 ± 0.9 percentage of administered dose
same,^18F-labeled species: lipophilic metabolites,"[1]; Control, 2 hr, 37° C.",2.4 ± 0.4 percentage of administered dose
same,"incorporation of radioactivity into lipophilic species, FCH relative to [^14C]CH","[1]; PC-3 cells, 2 hr",5 fold
same,oxidation in the cancer cells (betaine / fluorobetaine by HPLC),"[1]; PC-3 cells, 2 hr",negligible
same,share of cell radioactivity found as phosphorylated tracer (phosphorylfluorocholine / phosphocholine),"[1]; PC-3 cells, 2 hr",Approximately 72%
same,share of total cell radioactivity as lipophilic metabolites,"[1]; PC-3 cells, 2 hr",25%
same,effective dose equivalent (EDE),[2]; 10 mCi administration,1.1 rem
same,largest organ dose (kidney),[2]; 10 mCi administration,8.1 rads/rems
same,"Human radiation dose estimate, Heart","[2]; calculated from mice FCH biodistribution data, 70 kg adult male phantom",0.046 rads/mCi
same,"Human radiation dose estimate, Bladder wall",[2]; [5],0.049 rads/mCi
same,"Human radiation dose estimate, Bone",[2]; [5],0.038 rads/mCi
same,"Human radiation dose estimate, Brain",[2]; [5],0.0071 rads/mCi
same,"Human radiation dose estimate, Kidney",[2]; [5],0.81 rads/mCi
same,"Human radiation dose estimate, Liver",[2]; [5],0.30 rads/mCi
same,"Human radiation dose estimate, Lung",[2]; [5],0.043 rads/mCi
same,"Human radiation dose estimate, Muscle",[2]; [5],0.032 rads/mCi
same,"Human radiation dose estimate, Ovaries",[2]; [5],0.039 rads/mCi
same,"Human radiation dose estimate, Red marrow",[2]; [5],0.043 rads/mCi
same,"Human radiation dose estimate, Testes",[2]; [5],0.028 rads/mCi
same,decrease of SUV in ischial metastasis,[3],68%
same,decrease of SUV in primary tumor,[3],61%
same,decrease of SUVs in the tumors,[3],35-40%
same,SUV in ischial metastasis,[3]; male,2.4
same,SUV in primary tumor,[3]; male,3.0
same,SUV index in osseous lesions,[3]; male,8.0
same,SUV values in osseous lesions of the pelvis region,[3]; male,3.8-8.0
same,injected dose of radioactivity in urine,[3]; male,1.3%
same,radioactivity concentration in the brain relative to prostate gland or metastasis,[3]; male,< 2%
same,time of arrival of radioactivity in the urinary bladder / urine,[3]; male,about 8 min
same,time to plateau of radioactivity concentration in prostate and metastasis,[3]; male,≤ 5 min
same,time to plateau of radioactivity concentration in the prostate bed,[3]; male,≤ 3 min
same,"tracer uptake in osseous lesions, FCH relative to FDG",[3]; male,2 fold
same,arterial concentration relative to the peak level,"[3]; male, 2 min",< 5%
same,SUV of osseous metastasis (left ischium),"[3]; male, 5 min",7.7
same,SUV of primary tumor,"[3]; male, 5 min",7.7
same,Uptake in Blood,[4]; 10 min,2.7 ± 0.9 % dose kg/100 g
same,Uptake in Brain,[4]; 10 min,0.8 ± 0.3 % dose kg/100 g
same,Uptake in Heart,[4]; 10 min,15.5 ± 5.9 % dose kg/100 g
same,Uptake in Kidney,[4]; 10 min,127.7 ± 27.6 % dose kg/100 g
same,Uptake in Liver,[4]; 10 min,50.7 ± 15.3 % dose kg/100 g
same,Uptake in Lung,[4]; 10 min,18.0 ± 5.3 % dose kg/100 g
same,Uptake in Prostate,[4]; 10 min,6.6 ± 2.2 % dose kg/100 g
same,Uptake in Skeletal Muscle,[4]; 10 min,4.4 ± 1.8 % dose kg/100 g
same,Uptake in Tumor,[4]; 10 min,3.6 ± 0.6 % dose kg/100 g
same,Uptake in Blood,[4]; 30 min,3.3 ± 0.2 % dose kg/100 g
same,Uptake in Brain,[4]; 30 min,1.0 ± 0.2 % dose kg/100 g
same,Uptake in Heart,[4]; 30 min,13.2 ± 2.6 % dose kg/100 g
same,Uptake in Kidney,[4]; 30 min,116 ± 17 % dose kg/100 g
same,Uptake in Liver,[4]; 30 min,56.7 ± 13.2 % dose kg/100 g
same,Uptake in Lung,[4]; 30 min,17.1 ± 1.4 % dose kg/100 g
same,Uptake in Prostate,[4]; 30 min,7.1 ± 2.1 % dose kg/100 g
same,Uptake in Skeletal Muscle,[4]; 30 min,1.1 ± 1.0 % dose kg/100 g
same,Uptake in Tumor,[4]; 30 min,7.1 ± 2.1 % dose kg/100 g
same,Uptake in Blood,[4]; 60 min,1.5 ± 0.6 % dose kg/100 g
same,Uptake in Brain,[4]; 60 min,0.8 ± 0.1 % dose kg/100 g
same,Uptake in Heart,[4]; 60 min,12.7 ± 3.2 % dose kg/100 g
same,Uptake in Kidney,[4]; 60 min,94.3 ± 31.0 % dose kg/100 g
same,Uptake in Liver,[4]; 60 min,58.4 ± 40.6 % dose kg/100 g
same,Uptake in Lung,[4]; 60 min,21 ± 4.4 % dose kg/100 g
same,Uptake in Prostate,[4]; 60 min,7.1 ± 3.0 % dose kg/100 g
same,Uptake in Skeletal Muscle,[4]; 60 min,4.1 ± 0.6 % dose kg/100 g
same,Uptake in Tumor,[4]; 60 min,7.9 ± 5.0 % dose kg/100 g
same,tumor uptake,[4]; PC-3 xenograft,~0.07 % dose kg/g
same,injected dose in the urinary bladder,[4]; at 30 min,10%
same,tumor:blood ratio,[4]; at 60 min,5.3±2.4
same,liver uptake compared with CH,"[4]; mouse, in vivo",lower
same,uptake by normal brain compared with other tracers,"[4]; mouse, in vivo",one tenth that for FDG; also recorded: one half that of CH
